Data published in patent publication US8822754B2, “Ecdysone receptor-based inducible gene expression system” (Intrexon Corporation, priority 2000, dated 2014).

Experiments:
GAL4RXR + VP16CfEcR = assay: Transactivation of reporter genes through switch 1.3 in CHO cells; type: cell-based, Choristoneura fumiferana; conditions: switch 1.3 GAL4RXR + VP16CfEcR, pGAL4RELuc
Procedure: (§1) The cells were harvested and reporter activity was assayed.
(§2) Cells were harvested 24-48 hr after adding ligands. […] Twenty μl of lysate was assayed.

VP16CfEcR [1] = assay: Transactivation of reporter genes through switch 1.7 in CHO cells; type: cell-based, Choristoneura fumiferana; conditions: switch 1.7 VP16CfEcR, pEcRELuc
Procedure: (§3) Six ecdysone response elements (“EcRE”; SEQ ID NO: 59) from the hsp27 gene were placed upstream of the promoter and a luciferase gene (SEQ ID NO: 57). This switch most probably uses endogenous RXR.
as §1, §2

CfVgRXR + MmRXR [2] = assay: Transactivation of reporter genes through switch 1.9 in CHO cells; type: cell-based, Choristoneura fumiferana; conditions: switch 1.9 CfVgRXR + MmRXR, pIND(SP1)LacZ
Procedure: (§4) This example was prepared in the same way as switch 1.8 except DinEcR was replaced with a truncated CfEcR comprising a partial A/B domain and the complete CDEF domains [SEQ ID NO: 62 (polynucleotide) and SEQ ID NO: 63 (polypeptide)].
as §1, §2

DmVgRXR + MmRXR [3] = molecular target: T1, DmVgRXR + MmRXR (Drosophila melanogaster, UniProt P34021, E282G/G283S/G286V); assay: Transactivation of reporter genes through switch 1.8 in 3T3 cells; type: cell-based; conditions: switch 1.8 DmVgRXR + MmRXR, pIND(SP1)LacZ
T1 construct: host or cells: CHO, NIH3T3, 293 or CV1 cells (one cell line per assay)
T1 sequence (P34021 whole entry E282G/G283S/G286V): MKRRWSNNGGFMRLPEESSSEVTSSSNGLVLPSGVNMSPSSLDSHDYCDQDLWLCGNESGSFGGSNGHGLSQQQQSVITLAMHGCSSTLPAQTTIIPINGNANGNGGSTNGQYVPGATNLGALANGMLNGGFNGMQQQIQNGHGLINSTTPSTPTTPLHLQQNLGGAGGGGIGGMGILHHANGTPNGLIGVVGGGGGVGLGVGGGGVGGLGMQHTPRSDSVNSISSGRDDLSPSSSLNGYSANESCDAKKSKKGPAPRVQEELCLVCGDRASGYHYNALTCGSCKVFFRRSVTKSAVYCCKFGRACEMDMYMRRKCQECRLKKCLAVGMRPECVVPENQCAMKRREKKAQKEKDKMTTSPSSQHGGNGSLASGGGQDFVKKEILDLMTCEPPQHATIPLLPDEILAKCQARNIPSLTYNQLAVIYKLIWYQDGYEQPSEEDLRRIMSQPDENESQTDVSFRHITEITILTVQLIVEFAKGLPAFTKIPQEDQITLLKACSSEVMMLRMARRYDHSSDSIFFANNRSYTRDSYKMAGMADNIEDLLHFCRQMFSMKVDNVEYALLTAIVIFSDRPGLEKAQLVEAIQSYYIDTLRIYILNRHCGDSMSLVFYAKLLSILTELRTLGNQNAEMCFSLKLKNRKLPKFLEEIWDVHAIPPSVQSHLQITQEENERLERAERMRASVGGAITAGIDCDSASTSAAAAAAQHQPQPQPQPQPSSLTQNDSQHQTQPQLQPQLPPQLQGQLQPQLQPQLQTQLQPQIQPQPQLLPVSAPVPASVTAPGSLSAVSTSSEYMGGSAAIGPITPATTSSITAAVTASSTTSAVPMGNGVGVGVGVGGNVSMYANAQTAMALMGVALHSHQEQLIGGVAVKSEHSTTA
T1 sequence (P28700 whole entry, further chain): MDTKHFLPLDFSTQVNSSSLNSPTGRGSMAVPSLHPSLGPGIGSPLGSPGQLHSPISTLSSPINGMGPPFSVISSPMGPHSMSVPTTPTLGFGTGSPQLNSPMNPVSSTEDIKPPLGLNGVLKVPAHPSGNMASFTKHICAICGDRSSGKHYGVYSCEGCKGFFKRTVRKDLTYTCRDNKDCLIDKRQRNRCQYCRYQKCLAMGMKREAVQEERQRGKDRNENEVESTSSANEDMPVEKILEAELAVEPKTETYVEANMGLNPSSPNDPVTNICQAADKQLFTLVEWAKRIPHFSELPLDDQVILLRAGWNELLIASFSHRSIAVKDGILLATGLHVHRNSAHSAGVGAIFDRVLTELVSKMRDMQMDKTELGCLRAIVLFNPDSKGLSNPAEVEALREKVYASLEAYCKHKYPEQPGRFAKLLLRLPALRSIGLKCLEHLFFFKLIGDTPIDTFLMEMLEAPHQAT
Description: (§5) This system was purchased from Invitrogen Corp., Carlsbad, Calif. It comprises a Drosophila melanogaster EcR (“DmEcR”) with a modified DNABD fused to VP16AD and placed under the control of a CMV promoter (SEQ ID NO: 60). Full length MmRXR (SEQ ID NO: 53) was placed under the control of the RSV promoter (SEQ ID NO: 61). The reporter, pIND(SP1)LacZ, contains five copies of a modified ecdysone response element (“EcRE”, E/GRE), three copies of an SP1 enhancer, and a minimal heat shock promoter, all of which were placed upstream to the LacZ reporter gene.
The cells were plated when they reached 50% confluency.
as §2

GAL4EcR + VP16RXR = assay: Transactivation of reporter genes through switch 1.1 in 293 cells; type: cell-based, Choristoneura fumiferana; conditions: switch 1.1 GAL4EcR + VP16RXR, pGAL4RELuc
Procedure: (§6) The same procedures described for CHO were followed for 293 cells except that the cells were plated in biocoated plates to avoid clumping.
as §2

GAL4USP + VP16CfEcR [4] = assay: Transactivation of reporter genes through switch 1.5 in 293 cells; type: cell-based, Choristoneura fumiferana; conditions: switch 1.5 GAL4USP + VP16CfEcR, pGAL4RELuc
Procedure: (§7) This construct was prepared in the same way as switch 1.3 except MmRXRDEF was replaced with CfUSPDEF (SEQ ID NO: 58).
as §6, §2

GAL4CfEcRVP16 [5] = assay: Transactivation of reporter genes through switch 1.6 in 293 cells; type: cell-based, Choristoneura fumiferana; conditions: switch 1.6 GAL4CfEcRVP16, pGAL4RELuc
Procedure: (§8) This construct was prepared so that both the GAL4 DNABD and the VP16AD were placed on the same molecule. GAL4DNABD (SEQ ID NO: 41) and VP16AD (SEQ ID NO: 45) were fused to CfEcRDEF (SEQ ID NO: 3) at N- and C-termini respectively.
as §6, §2

VP16CfEcR [6] = assay: Transactivation of reporter genes through switch 1.7 in 293 cells; type: cell-based, Choristoneura fumiferana; conditions: switch 1.7 VP16CfEcR, pEcRELuc
Procedure: as §3, §6, §2

CfVgRXR + MmRXR [7] = assay: Transactivation of reporter genes through switch 1.9 in 293 cells; type: cell-based, Choristoneura fumiferana; conditions: switch 1.9 CfVgRXR + MmRXR, pIND(SP1)LacZ
Procedure: as §4, §6, §2

CfVgRXR = assay: Transactivation of reporter genes through switch 1.10 in 293 cells; type: cell-based, Choristoneura fumiferana; conditions: switch 1.10 CfVgRXR, pIND(SP1)LacZ
Procedure: This example was prepared in the same way as switch 1.9 except MmRXR (SEQ ID NO: 53) was deleted.
as §6, §2

GAL4USP + VP16CfEcR [8] = assay: Transactivation of reporter genes through switch 1.5 in CV1 cells; type: cell-based, Choristoneura fumiferana; conditions: switch 1.5 GAL4USP + VP16CfEcR, pGAL4RELuc
Procedure: as §7
(§9) The same procedures described for NIH3T3 cells were followed for CV1 cells
as §2

GAL4CfEcRVP16 [9] = assay: Transactivation of reporter genes through switch 1.6 in CV1 cells; type: cell-based, Choristoneura fumiferana; conditions: switch 1.6 GAL4CfEcRVP16, pGAL4RELuc
Procedure: as §8, §9, §2

DmVgRXR + MmRXR [10] = molecular target: T1, DmVgRXR + MmRXR; assay: Transactivation of reporter genes through switch 1.8 in CV1 cells; type: cell-based; conditions: switch 1.8 DmVgRXR + MmRXR, pIND(SP1)LacZ
Description: as §5, §9, §2

GAL4RXR + VP16DmEcR = molecular target: T2, GAL4RXR + VP16DmEcR (Drosophila melanogaster, UniProt P34021); assay: Transactivation of reporter genes through switch 1.4 in 293 cells; type: cell-based; parameters: expressed in transfected cells; host or cells: 293 cells (transient co-transfection); conditions: switch 1.4 GAL4RXR + VP16DmEcR, pGAL4RELuc
T2 sequence (P34021 254-878): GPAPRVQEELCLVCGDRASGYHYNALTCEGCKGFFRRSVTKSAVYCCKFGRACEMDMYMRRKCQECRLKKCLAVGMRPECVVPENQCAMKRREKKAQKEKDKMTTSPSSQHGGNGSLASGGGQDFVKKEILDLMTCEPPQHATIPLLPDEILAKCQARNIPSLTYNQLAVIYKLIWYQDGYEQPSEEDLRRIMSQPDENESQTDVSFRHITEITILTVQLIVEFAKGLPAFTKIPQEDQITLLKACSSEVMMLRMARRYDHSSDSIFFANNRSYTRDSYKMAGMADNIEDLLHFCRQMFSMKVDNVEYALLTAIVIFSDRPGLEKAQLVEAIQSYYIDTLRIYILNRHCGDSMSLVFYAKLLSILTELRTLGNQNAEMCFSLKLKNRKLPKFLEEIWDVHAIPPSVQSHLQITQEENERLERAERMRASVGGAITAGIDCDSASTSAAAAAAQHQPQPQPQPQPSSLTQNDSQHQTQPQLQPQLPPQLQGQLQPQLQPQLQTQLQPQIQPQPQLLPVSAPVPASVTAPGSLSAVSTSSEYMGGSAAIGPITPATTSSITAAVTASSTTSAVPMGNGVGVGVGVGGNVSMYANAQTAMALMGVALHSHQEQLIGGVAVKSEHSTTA
T2 sequence (P28700 206-467 partner limits assumed): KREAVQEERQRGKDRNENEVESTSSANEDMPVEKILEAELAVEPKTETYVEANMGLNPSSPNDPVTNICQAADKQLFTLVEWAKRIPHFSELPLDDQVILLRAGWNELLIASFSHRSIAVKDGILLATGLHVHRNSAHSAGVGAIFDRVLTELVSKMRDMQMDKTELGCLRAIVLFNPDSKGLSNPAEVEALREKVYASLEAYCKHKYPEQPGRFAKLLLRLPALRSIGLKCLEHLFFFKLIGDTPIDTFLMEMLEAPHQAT
Procedure: This construct was prepared in the same way as switch 1.3 except CfEcRCDEF was replaced with DmEcRCDEF (SEQ ID NO: 6).
as §6, §2

SMILES: CCc1c(OC)cccc1C(=O)NN(C(=O)c1cc(C)cc(C)c1)C(C)(C)C [N-(2-ethyl-3-methoxybenzoyl)-N′-(3,5-dimethylbenzoyl)-N′-tert-butylhydrazine]
- Mean Fold Activation with 50 μM N-(2-ethyl-3-methoxybenzoyl)-N′-(3,5-dimethylbenzoyl)-N′-t-butylhydrazine (GAL4RXR + VP16CfEcR): 85 fold
- Mean Fold Activation with 50 μM N-(2-ethyl-3-methoxybenzoyl)-N′-(3,5-dimethylbenzoyl)-N′-t-butylhydrazine (VP16CfEcR [1]): 36 fold
- Mean Fold Activation with 50 μM N-(2-ethyl-3-methoxybenzoyl)-N′-(3,5-dimethylbenzoyl)-N′-t-butylhydrazine (CfVgRXR + MmRXR [2]): 27 fold
- Mean Fold Activation Through N-(2-ethyl-3-methoxybenzoyl)-N′-(3,5-dimethylbenzoyl)-N′-t-butylhydrazine (DmVgRXR + MmRXR [3]): 21 fold
- Mean Fold Activation Through N-(2-ethyl-3-methoxybenzoyl)-N′-(3,5-dimethylbenzoyl)-N′-t-butylhydrazine (GAL4EcR + VP16RXR): 125 fold
- Mean Fold Activation Through N-(2-ethyl-3-methoxybenzoyl)-N′-(3,5-dimethylbenzoyl)-N′-t-butylhydrazine (GAL4USP + VP16CfEcR [4]): 2 fold
- Mean Fold Activation Through N-(2-ethyl-3-methoxybenzoyl)-N′-(3,5-dimethylbenzoyl)-N′-t-butylhydrazine (GAL4CfEcRVP16 [5]): 3 fold
- Mean Fold Activation Through N-(2-ethyl-3-methoxybenzoyl)-N′-(3,5-dimethylbenzoyl)-N′-t-butylhydrazine (VP16CfEcR [6]): 2 fold
- Mean Fold Activation Through N-(2-ethyl-3-methoxybenzoyl)-N′-(3,5-dimethylbenzoyl)-N′-t-butylhydrazine (CfVgRXR + MmRXR [7]): 12 fold
- Mean Fold Activation Through N-(2-ethyl-3-methoxybenzoyl)-N′-(3,5-dimethylbenzoyl)-N′-t-butylhydrazine (CfVgRXR): 3 fold
- Mean Fold Activation Through N-(2-ethyl-3-methoxybenzoyl)-N′-(3,5-dimethylbenzoyl)-N′-t-butylhydrazine (GAL4USP + VP16CfEcR [8]): 3 fold
- Mean Fold Activation Through N-(2-ethyl-3-methoxybenzoyl)-N′-(3,5-dimethylbenzoyl)-N′-t-butylhydrazine (GAL4CfEcRVP16 [9]): 6 fold
- Mean Fold Activation Through N-(2-ethyl-3-methoxybenzoyl)-N′-(3,5-dimethylbenzoyl)-N′-t-butylhydrazine (DmVgRXR + MmRXR [10]): 12 fold
- Mean Fold Activation Through N-(2-ethyl-3-methoxybenzoyl)-N′-(3,5-dimethylbenzoyl)-N′-t-butylhydrazine (GAL4RXR + VP16DmEcR): 3 fold
